Assay results reported in patent publication US20130178436A1, “COMPOSITION FOR PREVENTING, IMPROVING, OR TREATING RENAL DISEASE INCLUDING MAILLARD BROWNING REACTION PRODUCTS OF PANAX SPECIES PLANT EXTRACT” (Korea Institute of Science and Technology, priority 2012, published 2013).
Marks after values point to notes of the source that are not given here.

Key:
[1] = DPPH radical scavenging ability (antioxidative activity); assay type: biochemical; details: 60 μM DPPH, 30 minutes; FIGS. 5 to 13
Method: A DPPH radical scavenging ability was evaluated using a modified method from that described by Hatano et al (Hatano et al., Chem. Pharm. Bull., 37(8), pp 2016-2021, 1989). 100 μl of 60 μM DPPH was added to 100 μl of each of a plurality of sample solutions, the resultant solution was stirred and left for 30 minutes, and the absorbance of the resultant mixture was measured at 540 nm. An antioxidative activity (electron donating ability) was confirmed by measuring a decreasing ratio in absorbances of experimental groups comparing with a control of the sample solutions.

LLC-PK1 cells = assay: Protective activity for renal cells against AAPH-induced oxidative damage (MTT viability); assay type: cell-based; details: 10 mM AAPH
From the text: Renal cells, i.e., LLC-PK1 cell lines, are vulnerable to oxidative damage, and AAPH, which is a radical releasing agent, combines with oxygen molecules at a very rapid speed to produce a peroxyl radical and trigger lipid peroxidation, resulting in cytotoxicity (Miki et al., Arch. Biochem. Biophy., 258(2), 373-380, 1987). Thus, a protective activity for renal cells may be evaluated using such an oxidative damage of the LLC-PK1 cell lines using AAPH.
A protective effect for nephrotoxicity was evaluated using renal cells (LLC-PK1) with reference to a method reported in the publication (Yokozawa et al., Food Chem., 48, pp5068-5073, 2000) as follows.
First, the LLC-PK1 cells were cultured in an incubator with conditions of 37° C., 95% air, and 5% CO2 by using a DMEM/F12 medium (Gibco BRL Life Technologies, Grand Island, NY, USA) supplemented with 5% fetal bovine serum (Gibco BRL Life Technologies), 50 units/ml of penicillin G, and 50 μg/ml of streptomycin (Gibco BRL Life Technologies). The incubated LLC-PK1 cells were introduced into a 96-well incubation plate at a concentration of 10^4 […] and then stabilized for 2 hours. Afterwards, a radical generating reagent (i.e., 10 mM AAPH dissolved in a medium) was added to each well and cultured for 24 hours, and 50 μl of an MTT (1 mg/ml) reagent was then added to each well and incubated at 37° C. 4 hours thereafter, the medium containing MTT was removed and 100 μl of dimethyl sulfoxide was added to each well. Then, absorbance of the sample was measured using a detection wavelength of 540 nm in a SPECTRAmax 340PC (Molecular Devices, Sunnyvale, Calif., USA) microplate reader and a viability of the LLC-PK1 cells was measured using the absorbance thereof.

SMILES | DPPH radical scavenging ability (in words) [1] | protective activity for renal cells (in words) (LLC-PK1 cells) | Cell viability (LLC-PK1 cells; sample 10 μg/ml, 24 hours, MTT) | viability at 10 µg/mL (LLC-PK1 cells; Sus scrofa, sample 10 μg/ml, 24 hours, MTT, read-out: Cell viability) | viability at 100 µg/mL (LLC-PK1 cells; Sus scrofa, sample 100 μg/ml, 24 hours, MTT, read-out: Cell viability)
CC(C)=CCC[C@](C)(O[C@@H]1O[C@H](CO)[C@@H](O)[C@H](O)[C@H]1O)[C@H]1CC[C@]2(C)[C@@H]1[C@H](O)C[C@@H]1[C@@]3(C)CC[C@H](O)C(C)(C)[C@@H]3[C@@H](O[C@@H]3O[C@H](CO)[C@@H](O)[C@H](O)[C@H]3O[C@@H]3O[C@@H](C)[C@H](O)[C@@H](O)[C@H]3O)C[C@]12C [ginsenoside Re] | low reactive oxygen scavenging ability | inhibited cell damage at a high concentration | 89.6 ± 9.7^a % |  | 
N=C(N)NN [aminoguanidine] |  |  |  | 86.7 ± 14.2% | 88 ± 4.1%
